In ChEMBL document CHEMBL4507277:

Experiments:
[1] = biological target: AP2-associated protein kinase 1 (Homo sapiens) (UniProt Q2M2I8); conditions: Compound concentration 1000.0 nM
[2] = test system: Tyrosine-protein kinase ABL1 (Homo sapiens), P00519 [F317L]; conditions: Compound concentration 1000.0 nM
[3] = biological target: Activin receptor type-1-like (Homo sapiens) (UniProt P37023); conditions: Compound concentration 1000.0 nM
[4] = biological target: Mitogen-activated protein kinase kinase kinase 6 (Homo sapiens) (UniProt O95382); conditions: Compound concentration 1000.0 nM
Sequence of Mitogen-activated protein kinase kinase kinase 6 (Homo sapiens) (O95382 whole entry): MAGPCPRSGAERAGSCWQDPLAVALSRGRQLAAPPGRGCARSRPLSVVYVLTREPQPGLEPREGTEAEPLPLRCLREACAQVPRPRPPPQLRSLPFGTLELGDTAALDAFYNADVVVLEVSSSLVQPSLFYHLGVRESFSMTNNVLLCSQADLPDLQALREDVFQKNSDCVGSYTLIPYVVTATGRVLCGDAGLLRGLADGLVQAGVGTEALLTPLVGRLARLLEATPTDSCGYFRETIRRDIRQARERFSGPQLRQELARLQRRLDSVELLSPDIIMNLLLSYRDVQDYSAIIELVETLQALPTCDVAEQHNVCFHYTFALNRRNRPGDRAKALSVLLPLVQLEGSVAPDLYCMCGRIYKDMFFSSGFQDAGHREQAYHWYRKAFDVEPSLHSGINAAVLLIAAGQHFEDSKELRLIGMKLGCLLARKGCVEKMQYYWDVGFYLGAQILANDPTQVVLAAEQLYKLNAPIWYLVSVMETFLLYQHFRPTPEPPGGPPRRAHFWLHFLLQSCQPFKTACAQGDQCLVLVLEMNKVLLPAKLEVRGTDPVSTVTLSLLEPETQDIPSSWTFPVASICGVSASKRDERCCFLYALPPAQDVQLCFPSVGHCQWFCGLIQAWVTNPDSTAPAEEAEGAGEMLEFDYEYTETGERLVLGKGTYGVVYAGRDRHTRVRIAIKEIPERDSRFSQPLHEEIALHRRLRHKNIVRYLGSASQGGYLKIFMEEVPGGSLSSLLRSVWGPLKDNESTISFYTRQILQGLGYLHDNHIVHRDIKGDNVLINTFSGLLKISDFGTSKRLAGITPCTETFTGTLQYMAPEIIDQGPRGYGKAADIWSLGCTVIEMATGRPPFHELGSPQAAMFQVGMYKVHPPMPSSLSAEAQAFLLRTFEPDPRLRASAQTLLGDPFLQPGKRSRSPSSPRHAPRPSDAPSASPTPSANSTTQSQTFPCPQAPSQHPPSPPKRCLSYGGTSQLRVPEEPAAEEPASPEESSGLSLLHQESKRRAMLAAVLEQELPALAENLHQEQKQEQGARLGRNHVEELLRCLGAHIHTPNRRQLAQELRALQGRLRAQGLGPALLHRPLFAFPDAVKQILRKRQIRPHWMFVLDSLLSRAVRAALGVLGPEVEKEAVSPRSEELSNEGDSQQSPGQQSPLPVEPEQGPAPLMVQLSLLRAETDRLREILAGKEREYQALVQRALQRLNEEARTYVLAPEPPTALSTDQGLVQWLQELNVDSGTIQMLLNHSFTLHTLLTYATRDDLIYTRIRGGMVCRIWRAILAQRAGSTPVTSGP

[5] = biological target: Serine/threonine-protein kinase BRSK1 (Homo sapiens) (UniProt Q8TDC3); conditions: Compound concentration 1000.0 nM
[6] = biological target: Calcium/calmodulin-dependent protein kinase type 1G (Homo sapiens) (UniProt Q96NX5); conditions: Compound concentration 1000.0 nM
Sequence of Calcium/calmodulin-dependent protein kinase type 1G (Homo sapiens) (Q96NX5 whole entry): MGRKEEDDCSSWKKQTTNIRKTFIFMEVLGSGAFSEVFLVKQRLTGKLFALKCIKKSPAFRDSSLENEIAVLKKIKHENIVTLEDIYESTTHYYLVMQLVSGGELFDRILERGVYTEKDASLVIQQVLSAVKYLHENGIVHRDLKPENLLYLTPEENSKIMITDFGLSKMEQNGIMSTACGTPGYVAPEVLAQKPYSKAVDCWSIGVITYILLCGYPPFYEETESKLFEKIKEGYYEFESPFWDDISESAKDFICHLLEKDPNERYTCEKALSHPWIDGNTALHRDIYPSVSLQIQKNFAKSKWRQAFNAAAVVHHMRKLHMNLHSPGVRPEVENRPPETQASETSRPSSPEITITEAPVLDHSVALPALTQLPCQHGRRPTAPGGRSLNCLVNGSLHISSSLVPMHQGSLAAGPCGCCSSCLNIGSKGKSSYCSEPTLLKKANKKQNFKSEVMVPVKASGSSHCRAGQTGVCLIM

[7] = biological target: Cyclin-dependent kinase 11B (Homo sapiens) (UniProt P21127); conditions: Compound concentration 1000.0 nM
[8] = biological target: Cyclin-dependent kinase 9 (Homo sapiens) (UniProt P50750); conditions: Compound concentration 1000.0 nM
[9] = biological target: Serine/threonine-protein kinase Chk2 (Homo sapiens) (UniProt O96017); conditions: Compound concentration 1000.0 nM
[10] = biological target: Casein kinase I isoform epsilon (Homo sapiens) (UniProt P49674); conditions: Compound concentration 1000.0 nM
[11] = biological target: Casein kinase II subunit alpha' (Homo sapiens) (UniProt P19784); conditions: Compound concentration 1000.0 nM
[12] = biological target: Death-associated protein kinase 2 (Homo sapiens) (UniProt Q9UIK4); conditions: Compound concentration 1000.0 nM
[13] = biological target: Mitogen-activated protein kinase kinase kinase 12 (Homo sapiens) (UniProt Q12852); conditions: Compound concentration 1000.0 nM
[14] = test system: Epidermal growth factor receptor (Homo sapiens), P00533 [G719S]; conditions: Compound concentration 1000.0 nM
[15] = biological target: Serine/threonine-protein kinase/endoribonuclease IRE1 (Homo sapiens) (UniProt O75460); conditions: Compound concentration 1000.0 nM
[16] = biological target: Tyrosine-protein kinase Fer (Homo sapiens) (UniProt P16591); conditions: Compound concentration 1000.0 nM
Sequence of Tyrosine-protein kinase Fer (Homo sapiens) (P16591 whole entry, looked up): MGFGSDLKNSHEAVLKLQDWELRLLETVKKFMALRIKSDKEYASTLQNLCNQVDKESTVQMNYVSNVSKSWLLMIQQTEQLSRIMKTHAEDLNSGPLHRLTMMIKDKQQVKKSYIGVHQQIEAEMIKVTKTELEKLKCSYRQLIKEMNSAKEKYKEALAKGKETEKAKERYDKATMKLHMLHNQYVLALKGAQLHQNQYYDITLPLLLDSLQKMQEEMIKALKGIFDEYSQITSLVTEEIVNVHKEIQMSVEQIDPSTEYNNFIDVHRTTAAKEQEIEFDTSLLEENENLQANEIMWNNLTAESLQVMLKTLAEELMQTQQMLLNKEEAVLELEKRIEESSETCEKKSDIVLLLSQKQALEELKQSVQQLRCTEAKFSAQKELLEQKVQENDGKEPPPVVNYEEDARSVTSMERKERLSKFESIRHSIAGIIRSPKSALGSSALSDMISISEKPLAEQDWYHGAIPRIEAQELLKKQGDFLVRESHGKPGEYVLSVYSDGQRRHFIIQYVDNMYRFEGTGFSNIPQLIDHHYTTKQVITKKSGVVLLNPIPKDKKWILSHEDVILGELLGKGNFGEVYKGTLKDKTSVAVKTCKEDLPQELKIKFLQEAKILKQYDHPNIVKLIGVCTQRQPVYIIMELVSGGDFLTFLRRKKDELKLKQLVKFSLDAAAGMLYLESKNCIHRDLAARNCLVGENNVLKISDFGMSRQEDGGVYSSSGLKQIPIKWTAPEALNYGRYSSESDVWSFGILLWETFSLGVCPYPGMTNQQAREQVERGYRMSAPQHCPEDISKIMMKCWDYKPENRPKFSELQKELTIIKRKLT

[17] = biological target: Inhibitor of nuclear factor kappa-B kinase subunit alpha (Homo sapiens) (UniProt O15111); conditions: Compound concentration 1000.0 nM
[18] = biological target: Serine/threonine-protein kinase LATS1 (Homo sapiens) (UniProt O95835); conditions: Compound concentration 1000.0 nM
[19] = biological target: Serine/threonine-protein kinase 10 (Homo sapiens) (UniProt O94804); conditions: Compound concentration 1000.0 nM
[20] = biological target: Mitogen-activated protein kinase kinase kinase 15 (Homo sapiens) (UniProt Q6ZN16); conditions: Compound concentration 1000.0 nM
[21] = biological target: Mitogen-activated protein kinase kinase kinase 2 (Homo sapiens) (UniProt Q9Y2U5); conditions: Compound concentration 1000.0 nM
[22] = biological target: Microtubule-associated serine/threonine-protein kinase 1 (Homo sapiens) (UniProt Q9Y2H9); conditions: Compound concentration 1000.0 nM
[23] = biological target: Hepatocyte growth factor receptor (Homo sapiens) (UniProt P08581); conditions: Compound concentration 1000.0 nM
[24] = biological target: Serine/threonine-protein kinase Nek5 (Homo sapiens) (UniProt Q6P3R8); conditions: Compound concentration 1000.0 nM
[25] = biological target: Platelet-derived growth factor receptor beta (Homo sapiens) (UniProt P09619); conditions: Compound concentration 1000.0 nM
[26] = biological target: Cyclin-dependent kinase 2 homolog (Plasmodium falciparum (isolate 3D7)) (UniProt P61075); conditions: Compound concentration 1000.0 nM
Sequence of Cyclin-dependent kinase 2 homolog (Plasmodium falciparum (isolate 3D7)) (P61075 whole entry): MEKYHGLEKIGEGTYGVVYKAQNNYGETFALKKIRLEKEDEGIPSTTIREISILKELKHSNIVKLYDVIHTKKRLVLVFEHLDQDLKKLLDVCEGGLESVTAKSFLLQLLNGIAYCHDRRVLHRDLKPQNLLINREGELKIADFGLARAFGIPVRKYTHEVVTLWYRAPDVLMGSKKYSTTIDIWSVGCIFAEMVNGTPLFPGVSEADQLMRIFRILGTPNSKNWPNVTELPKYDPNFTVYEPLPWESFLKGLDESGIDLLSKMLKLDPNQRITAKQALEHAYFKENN

[27] = biological target: cAMP-dependent protein kinase catalytic subunit alpha (Homo sapiens) (UniProt P17612); conditions: Compound concentration 1000.0 nM
[28] = biological target: cAMP-dependent protein kinase catalytic subunit beta (Homo sapiens) (UniProt P22694); conditions: Compound concentration 1000.0 nM
[29] = biological target: Proto-oncogene tyrosine-protein kinase receptor Ret (Homo sapiens) (UniProt P07949); conditions: Compound concentration 1000.0 nM
[30] = biological target: Rho-associated protein kinase 1 (Homo sapiens) (UniProt Q13464); conditions: Compound concentration 1000.0 nM
Sequence of Rho-associated protein kinase 1 (Homo sapiens) (Q13464 2-1354 limits assumed): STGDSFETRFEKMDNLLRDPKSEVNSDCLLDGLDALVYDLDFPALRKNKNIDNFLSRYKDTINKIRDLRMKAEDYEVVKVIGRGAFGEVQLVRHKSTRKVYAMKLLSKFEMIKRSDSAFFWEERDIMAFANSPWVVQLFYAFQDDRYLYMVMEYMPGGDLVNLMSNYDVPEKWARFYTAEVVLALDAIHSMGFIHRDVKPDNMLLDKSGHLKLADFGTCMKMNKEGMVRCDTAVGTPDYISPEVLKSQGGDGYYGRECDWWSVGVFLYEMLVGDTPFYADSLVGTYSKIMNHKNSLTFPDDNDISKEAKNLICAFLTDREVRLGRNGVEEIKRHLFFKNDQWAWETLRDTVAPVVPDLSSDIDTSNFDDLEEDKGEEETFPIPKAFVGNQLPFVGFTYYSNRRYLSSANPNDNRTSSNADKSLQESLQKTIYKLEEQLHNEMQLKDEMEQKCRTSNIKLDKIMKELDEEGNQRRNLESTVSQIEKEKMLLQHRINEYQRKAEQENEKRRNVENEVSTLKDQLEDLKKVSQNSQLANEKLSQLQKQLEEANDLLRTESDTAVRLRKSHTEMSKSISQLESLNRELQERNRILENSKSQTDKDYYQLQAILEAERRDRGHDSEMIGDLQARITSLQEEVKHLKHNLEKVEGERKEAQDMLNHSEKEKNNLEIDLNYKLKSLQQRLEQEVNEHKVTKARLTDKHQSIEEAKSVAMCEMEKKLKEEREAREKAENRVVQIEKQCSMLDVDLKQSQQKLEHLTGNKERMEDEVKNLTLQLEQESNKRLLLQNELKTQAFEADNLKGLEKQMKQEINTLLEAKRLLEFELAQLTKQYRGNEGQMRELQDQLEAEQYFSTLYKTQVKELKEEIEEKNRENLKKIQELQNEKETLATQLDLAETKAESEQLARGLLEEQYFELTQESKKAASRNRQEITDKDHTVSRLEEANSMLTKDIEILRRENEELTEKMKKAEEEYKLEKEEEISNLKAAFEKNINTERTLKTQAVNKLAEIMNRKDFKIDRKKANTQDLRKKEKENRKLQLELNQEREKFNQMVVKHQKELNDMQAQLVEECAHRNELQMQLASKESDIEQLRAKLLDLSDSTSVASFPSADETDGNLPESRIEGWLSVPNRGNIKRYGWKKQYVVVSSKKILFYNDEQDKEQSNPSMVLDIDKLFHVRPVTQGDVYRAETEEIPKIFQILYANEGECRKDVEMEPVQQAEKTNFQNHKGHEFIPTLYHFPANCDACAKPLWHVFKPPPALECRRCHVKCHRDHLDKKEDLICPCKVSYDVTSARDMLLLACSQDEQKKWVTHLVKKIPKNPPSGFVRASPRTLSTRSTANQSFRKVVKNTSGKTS

[31] = biological target: Ribosomal protein S6 kinase alpha-4 (Homo sapiens) (UniProt O75676); conditions: Compound concentration 1000.0 nM
[32] = biological target: Serine/threonine-protein kinase SBK1 (Homo sapiens) (UniProt Q52WX2); conditions: Compound concentration 1000.0 nM
[33] = biological target: Serine/threonine-protein kinase Sgk2 (Homo sapiens) (UniProt Q9HBY8); conditions: Compound concentration 1000.0 nM
Sequence of Serine/threonine-protein kinase Sgk2 (Homo sapiens) (Q9HBY8 whole entry): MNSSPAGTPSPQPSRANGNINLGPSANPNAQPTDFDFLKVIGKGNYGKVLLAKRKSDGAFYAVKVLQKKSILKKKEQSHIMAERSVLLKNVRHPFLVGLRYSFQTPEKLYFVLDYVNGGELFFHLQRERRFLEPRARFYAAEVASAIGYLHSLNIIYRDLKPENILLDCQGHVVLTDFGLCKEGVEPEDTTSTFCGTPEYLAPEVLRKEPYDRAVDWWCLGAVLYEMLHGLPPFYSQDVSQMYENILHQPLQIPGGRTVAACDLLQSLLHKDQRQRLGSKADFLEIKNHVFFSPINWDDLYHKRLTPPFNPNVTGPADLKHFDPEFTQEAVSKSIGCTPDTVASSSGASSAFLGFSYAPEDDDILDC

[34] = biological target: SRSF protein kinase 3 (Homo sapiens) (UniProt Q9UPE1); conditions: Compound concentration 1000.0 nM
[35] = biological target: Angiopoietin-1 receptor (Homo sapiens) (UniProt Q02763); conditions: Compound concentration 1000.0 nM
[36] = biological target: Dual specificity protein kinase TTK (Homo sapiens) (UniProt P33981); conditions: Compound concentration 1000.0 nM
[37] = biological target: Phosphatidylinositol 3-kinase catalytic subunit type 3 (Homo sapiens) (UniProt Q8NEB9); conditions: Compound concentration 1000.0 nM
[38] = biological target: Wee1-like protein kinase 2 (Homo sapiens) (UniProt P0C1S8); conditions: Compound concentration 1000.0 nM
[39] = biological target: 5-hydroxytryptamine receptor 2C (Homo sapiens) (UniProt P28335); conditions: Compound concentration 10.0 uM
Sequence of 5-hydroxytryptamine receptor 2C (Homo sapiens) (P28335 whole entry): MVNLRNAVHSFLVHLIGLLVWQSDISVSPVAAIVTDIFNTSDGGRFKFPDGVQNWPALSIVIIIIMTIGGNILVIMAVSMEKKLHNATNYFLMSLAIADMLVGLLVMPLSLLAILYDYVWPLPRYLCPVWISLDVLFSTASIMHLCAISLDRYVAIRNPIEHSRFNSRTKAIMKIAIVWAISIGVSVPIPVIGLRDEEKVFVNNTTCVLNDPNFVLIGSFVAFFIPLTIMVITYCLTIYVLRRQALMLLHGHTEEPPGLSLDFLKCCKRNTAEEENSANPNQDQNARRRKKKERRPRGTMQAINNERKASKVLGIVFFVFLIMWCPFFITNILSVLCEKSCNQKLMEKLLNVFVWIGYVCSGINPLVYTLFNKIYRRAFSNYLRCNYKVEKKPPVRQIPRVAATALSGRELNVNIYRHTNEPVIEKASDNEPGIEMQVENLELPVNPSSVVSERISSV

[40] = biological target: Delta-type opioid receptor (Homo sapiens) (UniProt P41143); conditions: Compound concentration 10.0 uM
[41] = biological target: Kappa-type opioid receptor (Homo sapiens) (UniProt P41145); conditions: Compound concentration 10.0 uM
[42] = biological target: Histamine H1 receptor (Homo sapiens) (UniProt P35367); conditions: Compound concentration 10.0 uM
[43] = biological target: Alpha-2A adrenergic receptor (Homo sapiens) (UniProt P08913); conditions: Compound concentration 10.0 uM
[44] = biological target: GABA-A receptor; anion channel (Rattus norvegicus) (UniProt O09028+P15431+P18506+P18508+P19969+P20236+P23574+P23576+P28471+P28473+P30191+P62813+P63079+P63138+Q91ZM7+Q9ES14); conditions: Compound concentration 10.0 uM

CCS(=O)(=O)c1cc2cc(C[C@](O)(CC(C)(C)c3ccc(F)cc3C(N)=O)C(F)(F)F)[nH]c2cn1
inactive: residual activity [1] 100% | residual activity [2] 90% | residual activity [3] 100% | residual activity [4] 55% | residual activity [5] 99% | residual activity [6] 100% | residual activity [7] 100% | residual activity [8] 100% | residual activity [9] 92% | residual activity [10] 95% | residual activity [11] 92% | residual activity [12] 90% | residual activity [13] 100% | residual activity [14] 100% | residual activity [15] 91% | residual activity [16] 96% | residual activity [17] 100% | residual activity [18] 98% | residual activity [19] 100% | residual activity [20] 97% | residual activity [21] 100% | residual activity [22] 100% | residual activity [23] 98% | residual activity [24] 100% | residual activity [25] 100% | residual activity [26] 100% | residual activity [27] 100% | residual activity [28] 100% | residual activity [29] 93% | residual activity [30] 84% | residual activity [31] 98% | residual activity [32] 87% | residual activity [33] 90% | residual activity [34] 100% | residual activity [35] 90% | residual activity [36] 99% | residual activity [37] 100% | residual activity [38] 100% | inhibition [39] 0.64% | inhibition [40] -2.58% | inhibition [41] 23.4% | inhibition [42] 4.27% | inhibition [43] -4.94% | inhibition [44] 11%

CCS(=O)(=O)c1cc2cc(C[C@@](O)(CC(C)(C)c3ccc(F)cc3C(N)=O)C(F)(F)F)[nH]c2cn1
inactive: residual activity [1] 100% | residual activity [2] 61% | residual activity [3] 100% | residual activity [4] 100% | residual activity [5] 73% | residual activity [6] 100% | residual activity [7] 77% | residual activity [8] 78% | residual activity [9] 84% | residual activity [10] 97% | residual activity [11] 83% | residual activity [12] 100% | residual activity [13] 83% | residual activity [14] 100% | residual activity [15] 75% | residual activity [16] 74% | residual activity [17] 95% | residual activity [18] 77% | residual activity [19] 100% | residual activity [20] 57% | residual activity [21] 100% | residual activity [22] 100% | residual activity [23] 100% | residual activity [24] 100% | residual activity [25] 100% | residual activity [26] 100% | residual activity [27] 100% | residual activity [28] 99% | residual activity [29] 100% | residual activity [30] 69% | residual activity [31] 78% | residual activity [32] 94% | residual activity [33] 57% | residual activity [34] 100% | residual activity [35] 94% | residual activity [36] 78% | residual activity [37] 96% | residual activity [38] 95% | inhibition [39] 7.33% | inhibition [40] -3.88% | inhibition [41] 28.3% | inhibition [42] 6.19% | inhibition [43] -5.76% | inhibition [44] 19.5%
